Reference: the supplement of paper PMC10307832

Tests used:
Test in all cases: relative viability (nuclei count vs DMSO), 5 days (fraction); higher = more cells survive
Midostaurin = compound: CO[C@@H]1[C@H](N(C)C(=O)c2ccccc2)C[C@H]2O[C@]1(C)n1c3ccccc3c3c4c(c5c6ccccc6n2c5c31)C(=O)NC4 [Midostaurin]
Summary of the method: (§1)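 Nuclei counted with MetaXpress define viability as the ratio of treated to vehicle wells, given as a median across plates. The lung cancer cell lines were in 1536-well plates, pinned with five √10-spaced library-drug doses and imaged at 4× after 5 days and Hoechst staining. Plates passed with control CV below 25% and at least one doubling.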

[1] = compound: COc1cc(-c2nn([C@H]3CC[C@H](N4CCN(C(C)=O)CC4)CC3)c3ncnc(N)c23)ccc1NC(=O)c1cc2ccccc2n1C
Summary of the method: as §1

Midostaurin + OSI-027 = compound: CO[C@@H]1[C@H](N(C)C(=O)c2ccccc2)C[C@H]2O[C@]1(C)n1c3ccccc3c3c4c(c5c6ccccc6n2c5c31)C(=O)NC4 [Midostaurin] + COc1cccc2cc(-c3nc([C@H]4CC[C@H](C(=O)O)CC4)n4ncnc(N)c34)[nH]c12 [OSI-027] (partner 0.5 µM)
Summary of the method: (§2)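 Each reported value is a median over duplicate plates. It expresses relative viability: treated-well nuclei count divided by vehicle-well nuclei count. Lung cancer cell lines in 1536-well plates were dosed by pin tool a day after seeding, alone with one drug or with a fixed anchor-drug dose plus five library-drug doses (not always all listed) in √10 steps, and nuclei were counted after 5 days.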

[2] = compound: COc1cc(-c2nn([C@H]3CC[C@H](N4CCN(C(C)=O)CC4)CC3)c3ncnc(N)c23)ccc1NC(=O)c1cc2ccccc2n1C + Nc1nc2[nH]cc(CCc3ccc(C(=O)N[C@@H](CCC(=O)O)C(=O)O)cc3)c2c(=O)[nH]1 [Pemetrexed] (partner 0.2 µM)
Summary of the method: as §2

[3] = compound: COc1cc(-c2nn([C@H]3CC[C@H](N4CCN(C(C)=O)CC4)CC3)c3ncnc(N)c23)ccc1NC(=O)c1cc2ccccc2n1C + O=C(CCCCCCC(=O)Nc1ccccc1)NO [Vorinostat] (partner 1 µM)
Summary of the method: as §2

Cell Line | relative viability (Midostaurin; 0.01 µM) | relative viability (Midostaurin; 0.03162 µM) | relative viability (Midostaurin; 0.1 µM) | relative viability (Midostaurin; 0.3162 µM) | relative viability ([1]; 0.0128 µM) | relative viability ([1]; 0.04048 µM) | relative viability ([1]; 0.128 µM) | relative viability ([1]; 1.28 µM) | relative viability (Midostaurin + OSI-027; first compound 0.01 µM) | relative viability (Midostaurin + OSI-027; first compound 0.03162 µM) | relative viability (Midostaurin + OSI-027; first compound 0.1 µM) | relative viability (Midostaurin + OSI-027; first compound 0.3162 µM) | relative viability ([2]; first compound 0.0128 µM) | relative viability ([2]; first compound 0.04048 µM) | relative viability ([2]; first compound 0.128 µM) | relative viability ([2]; first compound 1.28 µM) | relative viability ([3]; first compound 0.0128 µM) | relative viability ([3]; first compound 0.04048 µM) | relative viability ([3]; first compound 0.128 µM) | relative viability ([3]; first compound 1.28 µM)
LXF-289 | 1.03 | 1.01 | 0.973 | 1.03 | 1.11 | 0.989 | 1.01 | 1.06 | 0.819 | 0.864 | 0.842 | 0.743 | 1.01 | 0.881 | 0.901 | 1.16 | 0.898 | 0.795 | 0.734 | 0.794
NCI-H23 | 1.05 | 0.962 | 0.791 | 0.562 | 0.951 | 0.726 | 0.901 | 0.946 | 0.562 | 0.592 | 0.524 | 0.513 | 0.66 | 0.459 | 0.688 | 0.618 | 0.734 | 0.51 | 0.541 | 0.519
NCI-H322M | 1 | 0.852 | 1.06 | 1.34 | 0.995 | 0.897 | 0.909 | 0.69 | 0.633 | 0.489 | 0.595 | 0.569 | 0.603 | 0.643 | 0.604 | 0.538 | 0.868 | 0.931 | 0.718 | 0.745
NCI-H358 | 0.949 | 0.93 | 1.08 | 0.85 | 0.889 | 0.703 | 0.702 | 0.335 | 0.894 | 0.73 | 0.788 | 0.776 | 0.188 | 0.187 | 0.173 | 0.166 | 0.706 | 0.672 | 0.523 | 0.646
NCI-H441 | 0.954 | 1.03 | 0.874 | 0.902 | 1.03 | 0.976 | 0.922 | 0.84 | 0.629 | 0.525 | 0.405 | 0.529 | 0.275 | 0.306 | 0.254 | 0.295 | 0.968 | 0.958 | 0.847 | 0.849
NCI-H460 | 1.04 | 1.01 | 0.997 | 1.01 | 0.977 | 0.983 | 0.907 | 0.989 | 0.513 | 0.62 | 0.722 | 0.665 | 0.0604 | 0.0561 | 0.0601 | 0.0597 | 0.735 | 0.983 | 0.642 | 0.709
NCI-H520 | 0.914 | 0.96 | 1.07 | 0.863 | 0.79 | 0.959 | 0.836 | 0.778 | 0.293 | 0.24 | 0.403 | 0.359 | 0.637 | 0.732 | 0.603 | 0.409 | 0.738 | 0.652 | 0.6 | 0.543
NCI-H522 | 1.07 | 1.06 | 0.947 | 1.04 | 0.936 | 0.875 | 0.954 | 0.885 | 0.712 | 0.729 | 0.668 | 0.766 | 1 | 0.939 | 1.14 | 0.822 | 0.898 | 0.946 | 0.823 | 0.79
NCI-H596 | 0.946 | 1.01 | 1.15 | 1.17 | 1.03 | 0.95 | 0.833 | 0.836 | 0.727 | 0.774 | 0.598 | 0.904 | 0.494 | 0.536 | 0.517 | 0.431 | 0.779 | 0.703 | 0.629 | 0.611
NCI-H647 | 0.919 | 0.88 | 0.962 | 0.884 | 1.09 | 0.961 | 0.88 | 0.623 | 0.637 | 0.652 | 0.779 | 0.753 | 0.19 | 0.154 | 0.172 | 0.164 | 0.422 | 0.698 | 0.606 | 0.421
NCI-H650 | 0.779 | 0.844 | 0.922 | 0.858 | 1.13 | 1.25 | 0.911 | 1.01 | 0.439 | 0.455 | 0.507 | 0.456 | 1.09 | 1.05 | 1.02 | 0.897 | 0.633 | 0.709 | 0.443 | 0.517
NCI-H661 | 0.963 | 0.869 | 0.991 | 1.11 | 1.02 | 1.07 | 1 | 0.779 | 0.74 | 0.638 | 0.719 | 0.607 | 0.939 | 0.991 | 0.93 | 0.968 | 0.761 | 0.971 | 0.819 | 1.01
NCI-H838 | 1 | 0.927 | 0.801 | 0.667 | 0.953 | 0.995 | 0.899 | 0.728 | 0.481 | 0.394 | 0.382 | 0.349 | 0.254 | 0.262 | 0.224 | 0.221 | 0.783 | 0.763 | 0.742 | 0.685
NCI-H1355 | 1 | 0.948 | 1.09 | 1.04 | 1.06 | 0.981 | 0.943 | 0.953 | 0.431 | 0.425 | 0.39 | 0.492 | 1.18 | 1.06 | 1.01 | 0.967 | 0.801 | 0.639 | 0.641 | 0.625
NCI-H1395 | 0.919 | 0.977 | 0.88 | 0.922 | 0.907 | 0.847 | 0.798 | 0.659 | 0.591 | 0.675 | 0.615 | 0.763 | 0.819 | 0.81 | 0.763 | 0.59 | 0.823 | 0.594 | 0.698 | 0.516
